The subject of assay [1] is non-cancerous mouse embryo fibroblast (NIH/3T3) cells. Put plainly: MTT assay on non-cancerous fibroblasts (tumour selectivity). Format: cell-based. The settings on record: Mus musculus, NIH3T3, 72 h; for inhibition at 10 µM / inhibition at 30 µM: read-out: Growth inhibition, % ± SEM; for IC50: read-out: calculated IC50 value. How it is done:
(§1) The antiproliferative properties of the newly synthesized compounds (9–20) and their starting materials (4 and 5) were determined on a panel of human adherent cancer cell lines. MCF-7, MDA-MB-231 and T47D were isolated from breast cancers differing in biochemical background, while A2780 cells were isolated from ovarian cancer. HeLa and SiHa are cervical cancer cell lines positive for HPV-18 and HPV-16, respectively, while C33-A cervical cancer cells are negative for HPV. Moreover, two oropharyngeal cancer cell lines were also utilized: the HPV-negative UPCI-SCC-131 and HPV-16 positive UPCI-SCC-154. The cancer selectivity of compounds was tested on the non-cancerous mouse embryo fibroblast cell line NIH/3T3. All cell lines were purchased from European Collection of Cell Cultures (ECCAC, Salisbury, UK) exception for SiHa and C33-A (American Tissue Culture Collection, Manassas, VA, USA) and HN-SCC-131 and UPCI-SCC-154 (German Collection of Microorganisms and Cell Cultures GmbH, Braunschweig, Germany). Cells were cultivated in minimal essential medium supplemented with 10% fetal bovine serum, 1% non-essential amino acids and an antibiotic–antimycotic mixture. The medium of oropharyngeal cancer cells additionally contained 2.0 mM L-glutamine. All media and supplements were obtained from Lonza Group Ltd., Basel, Switzerland. Near-confluent cancer cells were seeded onto a 96-well microplate at a density of 5,000 cells/well, except for C33-A which were seeded at 10,000/well. After overnight standing, new medium containing the tested compounds at 10 and 30 µM final concentration was added. After incubation for 72 h at 37 °C in humidified air containing 5% CO2, the living cells were assayed by the addition of 20 μL of 5 mg/ml 3-(4,5-dimethylthiazol-2-yl)-2,5-diphenyltetrazolium bromide (MTT) solution. MTT was converted by intact mitochondrial reductase and precipitated as purple crystals during a 4-h contact period. The medium was next removed and the precipitated formazan crystals were dissolved in 100 μL of DMSO during a 60-min period of shaking at 37 ^оC.
All in vitro experiments were carried out twice with five parallels. Stock solutions of the tested substances (10 mM) were prepared in DMSO. […] Cisplatin (Ebewe Pharma GmbH, Unterach, Austria) was used as positive control.

A further assay concerns C33-A cells. Put plainly: MTT antiproliferative assay, C33-A. The settings on record: Homo sapiens, C-33-A, 72 h; for inhibition at 10 µM: read-out: Growth inhibition, % ± SEM, C33-A, 10 μM; for inhibition at 30 µM: read-out: Growth inhibition, % ± SEM, C33-A, 30 μM; for IC50: read-out: calculated IC50 value. Format: cell-based, human. In outline: (§2)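 Adherent human cancer lines exposed 72 h to 10 or 30 µM compound after overnight attachment. Living cells quantified by mitochondrial MTT conversion. Cisplatin served as positive control.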

A further assay concerns UPCI-SCC-131 cells. The assay can be described thus: MTT antiproliferative assay, UPCI-SCC-131. As to conditions: Homo sapiens, 72 h, 72 h; for inhibition at 10 µM / inhibition at 30 µM: read-out: Growth inhibition, % ± SEM; for inhibition at 10 µM: UPCI-SCC-131, 10 μM; for inhibition at 30 µM: UPCI-SCC-131, 30 μM; for IC50: read-out: calculated IC50 value. It is filed as cell-based, human. The procedure, abridged: as §2

Assay [2] relates to panel of human adherent cancer cell lines. The assay can be described thus: MTT antiproliferative assay, whole panel of cell lines. The settings on record: read-out: IC50 (span over the panel). It is filed as cell-based. How it is done:
as §1, with “^оC. […]” for “^оC.”
In general terms: Tetrazolium assays rely on reduction of a dye to a coloured formazan, in cell work by metabolically active cells.

The next assay concerns SiHa cells. The assay can be described thus: MTT antiproliferative assay, SiHa. Format: cell-based, human. As to conditions: Homo sapiens, 72 h; for inhibition at 10 µM: read-out: Growth inhibition, % ± SEM, 10 μM; for inhibition at 30 µM: read-out: Growth inhibition, % ± SEM, 30 μM; for IC50: read-out: calculated IC50 value. In outline:
as §2

The next assay has as its system T47D cells. Put plainly: MTT antiproliferative assay, T47D. It is filed as cell-based, human. The settings on record: Homo sapiens, 72 h; for inhibition at 10 µM: read-out: Growth inhibition, % ± SEM, 10 μM; for inhibition at 30 µM: read-out: Growth inhibition, % ± SEM, 30 μM; for IC50: read-out: calculated IC50 value. In outline: as §2
The subject of a further assay is HeLa cells. The assay can be described thus: MTT antiproliferative assay, HeLa. It is filed as cell-based, human. As to conditions: Homo sapiens, 72 h; for inhibition at 10 µM: read-out: Growth inhibition, % ± SEM, 10 μM; for inhibition at 30 µM: read-out: Growth inhibition, % ± SEM, 30 μM; for IC50: read-out: calculated IC50 value. In outline:
as §2

A further assay deals with MDA-MB-231 cells. The assay can be described thus: MTT antiproliferative assay, MDA-MB-231. Format: cell-based, human. The settings on record: Homo sapiens, MDA-MB-231, 72 h; for inhibition at 10 µM / inhibition at 30 µM: read-out: Growth inhibition, % ± SEM; for IC50: read-out: calculated IC50 value. The procedure, abridged:
as §2

The next assay concerns UPCI-SCC-154 cells. Put plainly: MTT antiproliferative assay, UPCI-SCC-154. As to conditions: Homo sapiens, 72 h, 72 h; for inhibition at 10 µM / inhibition at 30 µM: read-out: Growth inhibition, % ± SEM; for inhibition at 10 µM: UPCI-SCC-154, 10 μM; for inhibition at 30 µM: UPCI-SCC-154, 30 μM; for IC50: read-out: calculated IC50 value. It is filed as cell-based, human. The procedure, abridged: as §2

Another assay deals with MCF-7 cells. The assay can be described thus: MTT antiproliferative assay, MCF-7. It is filed as cell-based, human. The settings on record: Homo sapiens, MCF7, 72 h; for inhibition at 10 µM / inhibition at 30 µM: read-out: Growth inhibition, % ± SEM, 72 h; for inhibition at 10 µM: MCF-7, 10 μM; for inhibition at 30 µM: MCF-7, 30 μM; for IC50: read-out: calculated IC50 value. The procedure, abridged: as §2

A further assay concerns A2780 cells. The assay can be described thus: MTT antiproliferative assay, A2780. Format: cell-based, human. The settings on record: Homo sapiens, A2780, 72 h; for inhibition at 10 µM / inhibition at 30 µM: read-out: Growth inhibition, % ± SEM, 72 h; for inhibition at 10 µM: A2780, 10 μM; for inhibition at 30 µM: A2780, 30 μM; for IC50: read-out: calculated IC50 value. In outline:
as §2

The subject of assay [3] is certain cancer cell lines. More on the design: method as in PMID 25845933. The settings on record: cited from earlier work.

Data on four compounds can be found in paper PMC8405091, “Microwave-assisted Phospha-Michael addition reactions in the 13α-oestrone series and in vitro antiproliferative properties” (Journal of Enzyme Inhibition and Medicinal Chemistry, 2021).

Each structure is given as a SMILES string.

By inhibition is commonly meant the change of the read-out against control, counted positive when it falls. As usually defined, the IC50 is the point on the concentration scale where inhibition reaches its midpoint. With `C[C@@]12CC[C@@H]3c4ccc(OCc5ccccc5)cc4CC[C@H]3[C@@H]1C[C@H](CP(=O)(c1ccccc1)c1ccccc1)C2=O` [Compound 12, [(3-benzyloxy-17-oxo-13α-oestra-1,3,5(10)-trien-16β-yl)methyl]diphenylphosphine oxide], the inhibition at 10 µM in assay [1] is below 20%; with C33-A cells, below 20%; with UPCI-SCC-131 cells it was 49.4 ± 2.06%; in the assay on SiHa cells, below 20%; in the assay on T47D cells, 31.4 ± 1.55%; with HeLa cells, below 20%. The inhibition at 10 µM in the assay with MDA-MB-231 cells, in the assay on UPCI-SCC-154 cells, with MCF-7 cells and in the assay on A2780 cells was below 20% in each case. Also, the inhibition at 30 µM in assay [1] worked out at 48.3 ± 1.65%; in the assay with C33-A cells, 97.68 ± 0.85%; with UPCI-SCC-131 cells, 90 ± 1.15%; with SiHa cells, 94.8 ± 1.48%; in the assay on T47D cells, 75 ± 1.65%; in the assay with HeLa cells, 96.4 ± 1.88%. Moreover, the inhibition at 30 µM with MDA-MB-231 cells came out at 84 ± 2.61%; with UPCI-SCC-154 cells, 75.5 ± 1.84%; in the assay on MCF-7 cells it was 90.2 ± 1.61%; in the assay with A2780 cells it was 97.14 ± 0.55%. Besides, the concentration for half-maximal inhibition (IC50) in assay [1] was 30.9 µM; in the assay on C33-A cells, 13.6 µM; in the assay with UPCI-SCC-131 cells, 14.2 µM; in assay [2], 13.6 to 29.8 µM; with SiHa cells, 14.1 µM; in the assay with T47D cells, 17 µM. Moreover, the half-maximal inhibitory concentration (IC50) with HeLa cells was 13.6 µM; in the assay with MDA-MB-231 cells, 24.5 µM; in the assay with UPCI-SCC-154 cells it was 29.8 µM; in the assay on MCF-7 cells, 16.4 µM; in the assay on A2780 cells it was 28.5 µM.
As to `COc1ccc2c(c1)CC[C@@H]1[C@@H]2CC[C@@]2(C)C(=O)[C@H](CP(=O)(c3ccc(C)cc3)c3ccc(C)cc3)C[C@@H]12` [Compound 13, [(3-methoxy-17-oxo-13α-oestra-1,3,5(10)-trien-16α-yl)methyl]di-p-tolylphosphine oxide], the inhibition at 10 µM is below 20% in [1]; below 20% with C33-A cells; 29.9 ± 1.21% in the assay with UPCI-SCC-131 cells; below 20% in the assay with SiHa cells; 26.7 ± 1.95% with T47D cells; below 20% in the assay on HeLa cells. For the same compound, the inhibition at 10 µM with MDA-MB-231 cells, with UPCI-SCC-154 cells, in the assay with MCF-7 cells and with A2780 cells was below 20% throughout. Besides, the inhibition at 30 µM in assay [1] amounted to 89.76 ± 0.49%; in the assay on C33-A cells it was 96.31 ± 0.46%; in the assay on UPCI-SCC-131 cells, 97.02 ± 0.43%; with SiHa cells, 92.9 ± 0.85%; with T47D cells, 89.82 ± 0.68%; in the assay with HeLa cells it was 95.69 ± 0.69%. In addition, the inhibition at 30 µM amounted to 95.56 ± 0.67% in the assay on MDA-MB-231 cells, 75.9 ± 1.93% in the assay with UPCI-SCC-154 cells, 84.9 ± 2.54% in the assay on MCF-7 cells and 97.77 ± 0.35% in the assay with A2780 cells. The half-inhibitory concentration (IC50) in assay [1] was 19.3 µM; with C33-A cells, 14.5 µM; in the assay with UPCI-SCC-131 cells it was 12.3 µM; in [2], 10 to 25 µM; in the assay on SiHa cells it was 13.7 µM; with T47D cells, 13.6 µM. Moreover, the IC50 with HeLa cells is 14.3 µM; in the assay on MDA-MB-231 cells, 25.8 µM; with UPCI-SCC-154 cells, 21.5 µM; with MCF-7 cells, 14.8 µM; with A2780 cells, 23.8 µM.
Regarding `COc1ccc2c(c1)CC[C@@H]1[C@@H]2CC[C@@]2(C)C(=O)[C@@H](CP(=O)(c3ccc(C)cc3)c3ccc(C)cc3)C[C@@H]12` [Compound 14, [(3-methoxy-17-oxo-13α-oestra-1,3,5(10)-trien-16β-yl)methyl]di-p-tolylphosphine oxide], the inhibition at 10 µM was below 20% in [1]; 26.9 ± 2.13% in the assay on C33-A cells; 48.8 ± 1.5% in the assay with UPCI-SCC-131 cells; below 20% in the assay on SiHa cells; 22.6 ± 1.33% in the assay on T47D cells; below 20% with HeLa cells. For the same compound, the inhibition at 10 µM with MDA-MB-231 cells, with UPCI-SCC-154 cells, in the assay on MCF-7 cells and with A2780 cells was below 20% each time. Also, the inhibition at 30 µM in assay [1] was found to be 52.7 ± 2.87%; in the assay on C33-A cells it was 101.1 ± 0.24%; in the assay on UPCI-SCC-131 cells, 97.3 ± 1.38%; with SiHa cells it was 93 ± 1.37%; in the assay on T47D cells, 86 ± 1.51%; in the assay on HeLa cells it was 99.14 ± 0.37%. Also, the inhibition at 30 µM turned out to be 98.22 ± 0.39% in the assay on MDA-MB-231 cells, 87 ± 1.16% in the assay on UPCI-SCC-154 cells, 90 ± 2.88% in the assay with MCF-7 cells and 100.3 ± 0.22% with A2780 cells. Also, the IC50 in assay [1] was 29.6 µM; in the assay with C33-A cells it was 10.9 µM; with UPCI-SCC-131 cells it was 10.9 µM; in [2], 10 to 25 µM; in the assay with SiHa cells it was 11.8 µM; in the assay with T47D cells it was 13.8 µM. Besides, the half-inhibitory concentration (IC50) is 12.2 µM in the assay on HeLa cells; 17.6 µM in the assay on MDA-MB-231 cells; 11.4 µM with UPCI-SCC-154 cells; 14.4 µM in the assay on MCF-7 cells; 21.5 µM in the assay with A2780 cells.
As for `CCc1ccc(-c2cn([C@H]3C[C@H]4[C@@H]5CCc6cc(OCc7ccccc7)ccc6[C@H]5CC[C@@]4(C)[C@@H]3O)nn2)cc1` [Compound 28], in assay [3], the IC50 result was “low micromolar range”.
